Results published in paper PMC5513037, “Examining the influence of specificity ligands and ATP-competitive ligands on the overall effectiveness of bivalent kinase inhibitors” (Proteome Science, 2017).

Experiments:
Test in all cases: KAM-matrix competition in K562 lysate;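 on 0.001 uM KAM: median log10 fold change of treatment over DMSO control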;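 on 0.01 uM KAM: median log10 fold change of treatment over DMSO control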;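 on 0.1 uM KAM: median log10 fold change of treatment over DMSO control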;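 on 1 uM KAM: median log10 fold change of treatment over DMSO control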;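 on 10 uM KAM: median log10 fold change of treatment over DMSO control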
Assay type in all cases: binding
CAMK2G = target: T1, CAMK2G (Homo sapiens, UniProt Q13555);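 on 0.001 uM KAM: median log10 fold change of treatment over DMSO control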;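 on 0.01 uM KAM: median log10 fold change of treatment over DMSO control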;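 on 0.1 uM KAM: median log10 fold change of treatment over DMSO control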;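 on 1 uM KAM: median log10 fold change of treatment over DMSO control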;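 on 10 uM KAM: median log10 fold change of treatment over DMSO control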
T1 construct: endogenous in cells; host or cells: K562
T1 sequence (Q13555 whole entry): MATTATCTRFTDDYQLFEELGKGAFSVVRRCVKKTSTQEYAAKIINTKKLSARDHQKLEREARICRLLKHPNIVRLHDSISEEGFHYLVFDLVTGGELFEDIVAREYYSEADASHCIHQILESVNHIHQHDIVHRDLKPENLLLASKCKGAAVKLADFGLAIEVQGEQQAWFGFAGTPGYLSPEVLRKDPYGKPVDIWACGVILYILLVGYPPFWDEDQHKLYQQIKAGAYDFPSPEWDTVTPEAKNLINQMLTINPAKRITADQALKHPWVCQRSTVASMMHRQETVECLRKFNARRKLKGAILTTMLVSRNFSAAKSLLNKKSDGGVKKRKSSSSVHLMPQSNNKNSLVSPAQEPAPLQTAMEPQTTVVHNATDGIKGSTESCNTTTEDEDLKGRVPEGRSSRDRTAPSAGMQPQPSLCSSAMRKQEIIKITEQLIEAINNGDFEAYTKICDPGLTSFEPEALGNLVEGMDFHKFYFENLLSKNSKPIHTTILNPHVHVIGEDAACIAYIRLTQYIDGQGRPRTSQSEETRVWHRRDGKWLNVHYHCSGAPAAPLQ
Description: (§1) Supplement 12953_2017_125_MOESM1_ESM.zip/MS_Supp Info.xlsx, sheet "KAM" | column: 10 uM KAM; 1 uM KAM; 0.1 uM KAM; 0.01 uM KAM; 0.001 uM KAM; RB50

BLVRA = target: T2, BLVRA (Homo sapiens, UniProt P53004);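 on 0.001 uM KAM: median log10 fold change of treatment over DMSO control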;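 on 0.01 uM KAM: median log10 fold change of treatment over DMSO control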;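 on 0.1 uM KAM: median log10 fold change of treatment over DMSO control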;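 on 1 uM KAM: median log10 fold change of treatment over DMSO control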;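 on 10 uM KAM: median log10 fold change of treatment over DMSO control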
T2 construct: endogenous in cells; host or cells: K562
T2 sequence (P53004 3-296): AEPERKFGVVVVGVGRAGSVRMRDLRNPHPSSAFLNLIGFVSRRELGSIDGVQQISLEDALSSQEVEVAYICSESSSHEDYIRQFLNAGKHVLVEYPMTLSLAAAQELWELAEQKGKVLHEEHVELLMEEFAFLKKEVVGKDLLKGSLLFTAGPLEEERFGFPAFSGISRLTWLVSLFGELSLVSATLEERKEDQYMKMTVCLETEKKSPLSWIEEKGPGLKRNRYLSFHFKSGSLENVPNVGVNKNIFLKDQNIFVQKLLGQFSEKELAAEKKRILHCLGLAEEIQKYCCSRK
Description: as §1

MAP3K4 = target: T3, MAP3K4 (Homo sapiens, UniProt Q9Y6R4);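 on 0.001 uM KAM: median log10 fold change of treatment over DMSO control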;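 on 0.01 uM KAM: median log10 fold change of treatment over DMSO control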;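 on 0.1 uM KAM: median log10 fold change of treatment over DMSO control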;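 on 1 uM KAM: median log10 fold change of treatment over DMSO control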;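 on 10 uM KAM: median log10 fold change of treatment over DMSO control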
T3 construct: endogenous in cells; host or cells: K562
T3 sequence (Q9Y6R4 whole entry): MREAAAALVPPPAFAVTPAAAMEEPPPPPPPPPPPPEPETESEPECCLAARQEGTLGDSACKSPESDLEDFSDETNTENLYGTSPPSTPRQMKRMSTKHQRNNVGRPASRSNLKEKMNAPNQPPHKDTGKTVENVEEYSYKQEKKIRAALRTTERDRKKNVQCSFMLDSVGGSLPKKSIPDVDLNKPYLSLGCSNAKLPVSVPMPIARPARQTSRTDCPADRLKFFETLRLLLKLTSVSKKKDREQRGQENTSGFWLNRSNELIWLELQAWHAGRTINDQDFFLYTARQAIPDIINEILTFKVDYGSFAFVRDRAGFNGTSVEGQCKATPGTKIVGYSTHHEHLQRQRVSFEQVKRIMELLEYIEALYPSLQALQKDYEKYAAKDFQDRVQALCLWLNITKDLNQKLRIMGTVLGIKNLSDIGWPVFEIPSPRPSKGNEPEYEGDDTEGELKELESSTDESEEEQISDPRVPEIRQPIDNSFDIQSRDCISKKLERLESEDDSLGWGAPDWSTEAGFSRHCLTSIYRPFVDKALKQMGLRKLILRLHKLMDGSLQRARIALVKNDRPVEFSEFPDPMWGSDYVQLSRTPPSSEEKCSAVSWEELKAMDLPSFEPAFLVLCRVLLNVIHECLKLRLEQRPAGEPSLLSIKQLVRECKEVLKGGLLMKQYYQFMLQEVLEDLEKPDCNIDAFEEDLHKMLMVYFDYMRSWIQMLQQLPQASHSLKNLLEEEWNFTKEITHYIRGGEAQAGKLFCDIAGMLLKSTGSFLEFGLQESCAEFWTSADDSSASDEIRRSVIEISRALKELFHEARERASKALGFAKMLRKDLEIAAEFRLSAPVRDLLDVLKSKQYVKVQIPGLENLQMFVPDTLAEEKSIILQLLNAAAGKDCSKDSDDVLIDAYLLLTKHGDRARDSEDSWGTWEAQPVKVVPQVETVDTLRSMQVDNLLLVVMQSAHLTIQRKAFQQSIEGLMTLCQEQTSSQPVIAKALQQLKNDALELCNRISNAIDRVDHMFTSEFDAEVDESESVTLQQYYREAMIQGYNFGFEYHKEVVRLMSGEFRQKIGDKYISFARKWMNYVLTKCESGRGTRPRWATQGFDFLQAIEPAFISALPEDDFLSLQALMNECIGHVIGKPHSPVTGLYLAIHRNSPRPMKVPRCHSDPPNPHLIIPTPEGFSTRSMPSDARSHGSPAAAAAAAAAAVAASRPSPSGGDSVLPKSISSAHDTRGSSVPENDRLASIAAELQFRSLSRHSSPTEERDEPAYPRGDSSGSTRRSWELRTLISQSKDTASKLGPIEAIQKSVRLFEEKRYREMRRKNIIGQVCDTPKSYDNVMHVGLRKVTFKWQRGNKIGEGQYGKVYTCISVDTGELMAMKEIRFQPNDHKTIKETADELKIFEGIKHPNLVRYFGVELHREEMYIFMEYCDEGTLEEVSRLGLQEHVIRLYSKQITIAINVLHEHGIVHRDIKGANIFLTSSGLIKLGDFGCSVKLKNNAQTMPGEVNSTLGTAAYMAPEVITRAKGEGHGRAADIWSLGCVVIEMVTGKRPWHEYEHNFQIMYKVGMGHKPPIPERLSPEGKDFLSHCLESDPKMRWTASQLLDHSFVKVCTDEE
Description: as §1

FLT1 = target: T4, FLT1 (Homo sapiens, UniProt P17948);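 on 0.001 uM KAM: median log10 fold change of treatment over DMSO control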;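 on 0.01 uM KAM: median log10 fold change of treatment over DMSO control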;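 on 0.1 uM KAM: median log10 fold change of treatment over DMSO control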;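 on 1 uM KAM: median log10 fold change of treatment over DMSO control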;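 on 10 uM KAM: median log10 fold change of treatment over DMSO control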
T4 construct: endogenous in cells; host or cells: K562
Description: as §1

EEF2K = target: T5, EEF2K (Homo sapiens, UniProt O00418);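 on 0.001 uM KAM: median log10 fold change of treatment over DMSO control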;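 on 0.01 uM KAM: median log10 fold change of treatment over DMSO control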;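 on 0.1 uM KAM: median log10 fold change of treatment over DMSO control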;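 on 1 uM KAM: median log10 fold change of treatment over DMSO control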;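 on 10 uM KAM: median log10 fold change of treatment over DMSO control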
T5 construct: endogenous in cells; host or cells: K562 lysate
T5 sequence (O00418 1-725): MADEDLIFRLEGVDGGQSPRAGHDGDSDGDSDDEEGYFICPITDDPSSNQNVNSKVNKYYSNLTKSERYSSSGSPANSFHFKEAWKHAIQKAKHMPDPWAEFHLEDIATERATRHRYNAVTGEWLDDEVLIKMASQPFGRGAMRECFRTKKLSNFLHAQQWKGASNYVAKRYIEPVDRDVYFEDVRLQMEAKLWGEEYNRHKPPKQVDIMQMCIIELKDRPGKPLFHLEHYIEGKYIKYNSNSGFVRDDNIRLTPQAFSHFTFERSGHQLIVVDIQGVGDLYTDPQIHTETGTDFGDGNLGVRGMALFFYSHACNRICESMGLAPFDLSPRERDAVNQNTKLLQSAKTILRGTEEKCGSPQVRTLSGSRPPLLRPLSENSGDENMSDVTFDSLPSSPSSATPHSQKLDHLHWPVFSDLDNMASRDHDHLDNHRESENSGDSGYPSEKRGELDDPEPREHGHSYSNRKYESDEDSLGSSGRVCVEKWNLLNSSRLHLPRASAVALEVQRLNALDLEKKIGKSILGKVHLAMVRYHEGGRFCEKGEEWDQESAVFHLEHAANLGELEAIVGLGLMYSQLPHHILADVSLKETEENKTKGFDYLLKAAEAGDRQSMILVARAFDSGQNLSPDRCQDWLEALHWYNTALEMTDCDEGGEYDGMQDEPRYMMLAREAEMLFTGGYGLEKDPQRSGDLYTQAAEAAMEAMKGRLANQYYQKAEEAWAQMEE
Description: as §1

BMP2K = target: T6, BMP2K (Homo sapiens, UniProt Q9NSY1)
T6 construct: endogenous in cells; host or cells: K562
T6 sequence (Q9NSY1 whole entry): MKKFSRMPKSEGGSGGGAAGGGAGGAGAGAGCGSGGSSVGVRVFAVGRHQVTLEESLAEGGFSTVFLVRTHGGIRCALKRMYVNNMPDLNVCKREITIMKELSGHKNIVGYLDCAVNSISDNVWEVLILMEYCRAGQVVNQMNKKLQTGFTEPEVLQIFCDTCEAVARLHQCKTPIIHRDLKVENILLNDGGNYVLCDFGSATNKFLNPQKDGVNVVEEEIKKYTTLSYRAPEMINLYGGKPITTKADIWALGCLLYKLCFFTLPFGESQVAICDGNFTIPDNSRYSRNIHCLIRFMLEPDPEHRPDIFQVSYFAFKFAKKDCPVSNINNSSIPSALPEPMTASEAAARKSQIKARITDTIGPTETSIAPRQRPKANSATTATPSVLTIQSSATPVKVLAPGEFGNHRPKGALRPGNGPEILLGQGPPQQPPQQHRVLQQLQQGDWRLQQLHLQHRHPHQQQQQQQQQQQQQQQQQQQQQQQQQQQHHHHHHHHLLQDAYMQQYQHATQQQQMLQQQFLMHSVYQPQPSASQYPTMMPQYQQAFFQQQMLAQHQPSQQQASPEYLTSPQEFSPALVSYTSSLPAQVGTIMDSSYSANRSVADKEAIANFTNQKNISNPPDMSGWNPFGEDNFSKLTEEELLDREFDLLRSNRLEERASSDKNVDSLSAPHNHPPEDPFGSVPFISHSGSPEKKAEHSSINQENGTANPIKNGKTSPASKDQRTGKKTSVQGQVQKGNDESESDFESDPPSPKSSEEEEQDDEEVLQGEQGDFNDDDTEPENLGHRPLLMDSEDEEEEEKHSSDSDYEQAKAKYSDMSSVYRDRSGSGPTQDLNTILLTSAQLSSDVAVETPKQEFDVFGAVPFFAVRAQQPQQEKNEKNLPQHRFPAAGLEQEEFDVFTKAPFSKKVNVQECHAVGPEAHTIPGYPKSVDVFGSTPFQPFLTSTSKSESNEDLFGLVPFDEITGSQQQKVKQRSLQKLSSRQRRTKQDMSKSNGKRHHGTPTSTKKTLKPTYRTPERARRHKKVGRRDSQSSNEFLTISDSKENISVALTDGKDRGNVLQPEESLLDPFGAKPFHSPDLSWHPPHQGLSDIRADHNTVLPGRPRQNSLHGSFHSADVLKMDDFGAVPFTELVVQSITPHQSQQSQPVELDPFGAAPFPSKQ
Description: as §1

MAST3 = target: T7, MAST3 (Homo sapiens, UniProt O60307)
T7 construct: endogenous in cells; host or cells: K562 cells (lysate)
T7 sequence (O60307 whole entry): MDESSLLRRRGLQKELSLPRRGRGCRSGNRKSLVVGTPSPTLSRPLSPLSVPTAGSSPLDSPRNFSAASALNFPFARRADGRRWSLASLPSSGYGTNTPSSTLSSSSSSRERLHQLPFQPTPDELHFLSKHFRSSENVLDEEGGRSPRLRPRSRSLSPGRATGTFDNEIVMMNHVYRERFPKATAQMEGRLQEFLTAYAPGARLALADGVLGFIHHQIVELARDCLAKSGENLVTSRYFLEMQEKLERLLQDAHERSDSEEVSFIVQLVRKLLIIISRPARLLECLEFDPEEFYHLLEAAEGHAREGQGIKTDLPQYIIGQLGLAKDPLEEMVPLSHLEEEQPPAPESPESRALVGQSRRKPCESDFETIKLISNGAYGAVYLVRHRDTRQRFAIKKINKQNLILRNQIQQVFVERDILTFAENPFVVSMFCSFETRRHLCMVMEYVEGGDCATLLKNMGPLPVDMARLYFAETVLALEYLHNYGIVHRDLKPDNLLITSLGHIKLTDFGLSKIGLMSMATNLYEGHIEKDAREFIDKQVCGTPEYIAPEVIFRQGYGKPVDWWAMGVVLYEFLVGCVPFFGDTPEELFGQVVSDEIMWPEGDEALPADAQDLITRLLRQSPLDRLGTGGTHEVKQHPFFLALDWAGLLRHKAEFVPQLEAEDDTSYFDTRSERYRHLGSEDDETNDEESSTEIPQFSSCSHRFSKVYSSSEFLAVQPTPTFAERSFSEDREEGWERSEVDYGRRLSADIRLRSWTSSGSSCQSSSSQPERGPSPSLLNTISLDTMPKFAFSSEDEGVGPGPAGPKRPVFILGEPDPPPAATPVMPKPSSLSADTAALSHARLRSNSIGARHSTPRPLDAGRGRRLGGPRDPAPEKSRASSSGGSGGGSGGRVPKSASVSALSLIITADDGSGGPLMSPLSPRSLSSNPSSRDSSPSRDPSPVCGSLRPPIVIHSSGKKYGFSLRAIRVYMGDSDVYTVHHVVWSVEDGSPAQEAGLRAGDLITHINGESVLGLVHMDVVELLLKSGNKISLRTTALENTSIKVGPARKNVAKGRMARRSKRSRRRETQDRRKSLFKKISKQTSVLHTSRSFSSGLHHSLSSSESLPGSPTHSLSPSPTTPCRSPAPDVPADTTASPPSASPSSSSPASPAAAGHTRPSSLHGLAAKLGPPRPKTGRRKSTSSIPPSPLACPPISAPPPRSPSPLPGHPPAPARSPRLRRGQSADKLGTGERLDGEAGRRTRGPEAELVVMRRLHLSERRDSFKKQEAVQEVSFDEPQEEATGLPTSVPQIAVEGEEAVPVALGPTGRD
Description: as §1

[1] = KAM 0.001-10 uM, read-out: RB50 (the source's name)
[2] = read-out: RB50 (the source's name)

With `N#CCc1ccc(Nc2nc(NCCCN)cc(Nc3cc(C4CC4)[nH]n3)n2)cc1` [KAM] the IC50 (CAMK2G; [1]) was over 10 µM, the “0.001 uM KAM” value (CAMK2G; relative to 0 uM KAM = 0) was -0.0014 and the “0.01 uM KAM” value (CAMK2G; relative to 0 uM KAM = 0) was 0.01571. The “0.1 uM KAM” value (CAMK2G; relative to 0 uM KAM = 0) was -0.03365, the “1 uM KAM” value (CAMK2G; relative to 0 uM KAM = 0) was -0.07588 and the “10 uM KAM” value (CAMK2G; relative to 0 uM KAM = 0) was -0.2109. The IC50 (BLVRA; [1]) was over 10 µM, the “0.001 uM KAM” value (BLVRA; relative to 0 uM KAM = 0) was 0.01315 and the “0.01 uM KAM” value (BLVRA; relative to 0 uM KAM = 0) was 0.09211. For the same compound, the “0.1 uM KAM” value (BLVRA; relative to 0 uM KAM = 0) was 0.1192, the “1 uM KAM” value (BLVRA; relative to 0 uM KAM = 0) was 0.1811 and the “10 uM KAM” value (BLVRA; relative to 0 uM KAM = 0) was 0.1365. For the same compound, the IC50 (MAP3K4; [1]) was over 10 µM, the “0.001 uM KAM” value (MAP3K4; relative to 0 uM KAM = 0) was -0.03643 and the “0.01 uM KAM” value (MAP3K4; relative to 0 uM KAM = 0) was -0.006572. For the same compound, the “0.1 uM KAM” value (MAP3K4; relative to 0 uM KAM = 0) was -0.06704, the “1 uM KAM” value (MAP3K4; relative to 0 uM KAM = 0) was -0.09539 and the “10 uM KAM” value (MAP3K4; relative to 0 uM KAM = 0) was -0.1299. For the same compound, the IC50 (FLT1; [1]) was over 10 µM, the “0.001 uM KAM” value (FLT1; relative to 0 uM KAM = 0) was -0.03836 and the “0.01 uM KAM” value (FLT1; relative to 0 uM KAM = 0) was 0.0203. For the same compound, the “0.1 uM KAM” value (FLT1; relative to 0 uM KAM = 0) was -0.001012, the “1 uM KAM” value (FLT1; relative to 0 uM KAM = 0) was -0.1879 and the “10 uM KAM” value (FLT1; relative to 0 uM KAM = 0) was -0.2168. For the same compound, the IC50 (EEF2K; [1]) was over 10 µM, the “0.001 uM KAM” value (EEF2K; relative to 0 uM KAM = 0) was 0.04185 and the “0.01 uM KAM” value (EEF2K; relative to 0 uM KAM = 0) was 0.02355. The “0.1 uM KAM” value (EEF2K; relative to 0 uM KAM = 0) was 0.1074, the “1 uM KAM” value (EEF2K; relative to 0 uM KAM = 0) was 0.1036 and the “10 uM KAM” value (EEF2K; relative to 0 uM KAM = 0) was 0.09999. The “median Log10 fold change” value (BMP2K; 0.001 uM KAM) was -0.005905, the “median Log10 fold change” value (BMP2K; 0.01 uM KAM) was -0.3094 and the “median Log10 fold change” value (BMP2K; 0.1 uM KAM) was -0.4691. For the same compound, the “median Log10 fold change” value (BMP2K; 1 uM KAM) was -0.5686, the “median Log10 fold change” value (BMP2K; 10 uM KAM) was -0.6945 and the IC50 (BMP2K; [2]) was 0.016 µM. For the same compound, the “median Log10 fold change” value (MAST3; 0.001 uM KAM) was -0.04433, the “median Log10 fold change” value (MAST3; 0.01 uM KAM) was -0.01527 and the “median Log10 fold change” value (MAST3; 0.1 uM KAM) was -0.1684. For the same compound, the “median Log10 fold change” value (MAST3; 1 uM KAM) was -0.3441, the “median Log10 fold change” value (MAST3; 10 uM KAM) was -0.4667 and the IC50 (MAST3; [2]) was 0.784 µM.
